Calls of active or inactive are those of the source. No cut-off for these calls is given here.
Legend:
[1] = system: Mus musculus; assay: Antihypercholesterolemic activity against high cholesterol diet fed C57BL/6J mouse assessed as reduction in hepatocyte lysis necrosis at 300 microg/kg, ip administered every 2 days for 15 days by H&E staining based analysis; format: functional, organism-based; details: dose 300.0 µg/kg, time 15.0 day
[2] = system: HepG2; assay: Effect on ABCG1 mRNA expression in human HepG2 cells at 25 uM incubated for 24 hrs by RT-qPCR analysis; format: functional, cell-based
[3] = system: Mus musculus; assay: Antihypercholesterolemic activity against high cholesterol diet fed LXRalpha knockout C57BL/6J mouse assessed as improvement in hepatic steatosis at 300 microg/kg, ip administered every 2 days for 15 days by H&E staining based analysis; format: functional, organism-based; details: dose 300.0 µg/kg, time 15.0 day
[4] = molecular target: T1, Oxysterols receptor LXR-alpha (Homo sapiens) (UniProt Q13133); assay: Agonist activity at LXRalpha in human HepG2 cells assessed as upregulation of CYP7A1 protein expression level at 25 uM incubated for 24 hrs by Western blot analysis; format: cell-based; details: filed as agonist
T1 sequence (whole entry): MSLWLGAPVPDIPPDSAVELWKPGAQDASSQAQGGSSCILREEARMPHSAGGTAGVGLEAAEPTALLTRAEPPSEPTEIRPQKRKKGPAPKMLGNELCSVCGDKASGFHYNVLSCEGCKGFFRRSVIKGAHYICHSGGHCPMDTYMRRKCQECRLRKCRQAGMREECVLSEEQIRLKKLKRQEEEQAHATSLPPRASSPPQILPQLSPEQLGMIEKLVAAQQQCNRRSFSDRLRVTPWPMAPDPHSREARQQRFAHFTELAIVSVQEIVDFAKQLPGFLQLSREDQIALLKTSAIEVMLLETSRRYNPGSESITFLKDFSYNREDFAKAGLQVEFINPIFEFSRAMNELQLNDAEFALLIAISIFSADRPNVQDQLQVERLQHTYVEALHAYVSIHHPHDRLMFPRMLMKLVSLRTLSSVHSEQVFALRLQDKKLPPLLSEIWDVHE

[5] = system: Mus musculus; assay: Antihypercholesterolemic activity against high cholesterol diet induced C57BL/6J mouse assessed as reduction in plasma low-density lipoprotein cholesterol level at 300 microg/kg, ip administered every 2 days for 15 days; format: functional, organism-based; details: dose 300.0 µg/kg, time 15.0 day
[6] = system: HepG2; assay: (§1) Improvement of lipid metabolism in palmitic acid and oleic acid induced human HepG2 cell model of hepatic steatosis assessed as reduction in total cellular cholesterol level at 25 uM preincubated with palmitic acid and oleic acid for 48 hrs followed by compound addition and measured after 24 hrs; format: functional, cell-based
[7] = system: Mus musculus; assay: Antihypercholesterolemic activity against high cholesterol diet fed C57BL/6J mouse assessed as improvement in hepatocyte liposis at 300 microg/kg, ip administered every 2 days for 15 days by H&E staining based analysis; format: functional, organism-based; details: dose 300.0 µg/kg, time 15.0 day
[8] = system: Mus musculus; assay: Antihypercholesterolemic activity against high cholesterol diet fed C57BL/6J mouse assessed as reduction of fine vacuoles in the cytoplasm at 300 microg/kg, ip administered every 2 days for 15 days by H&E staining based analysis; format: functional, organism-based; details: dose 300.0 µg/kg, time 15.0 day
[9] = system: Mus musculus; assay: Antihypercholesterolemic activity against high cholesterol diet fed C57BL/6J mouse assessed as reduction in degree of hepatic steatosis at 300 microg/kg, ip administered every 2 days for 15 days by Oil red staining based analysis; format: functional, organism-based; details: dose 300.0 µg/kg, time 15.0 day
[10] = system: Mus musculus; assay: Antihypercholesterolemic activity against high cholesterol diet induced C57BL/6J mouse assessed as reduction in total cholesterol level in plasma at 300 microg/kg, ip administered every 2 days for 15 days; format: functional, organism-based; details: dose 300.0 µg/kg, time 15.0 day
[11] = system: Mus musculus; assay: Antihypercholesterolemic activity against high cholesterol diet induced C57BL/6J mouse assessed as reduction in hepatocyte damage at 300 microg/kg, ip administered every 2 days for 15 days; format: functional, organism-based; details: dose 300.0 µg/kg, time 15.0 day
[12] = system: Mus musculus; assay: Antihypercholesterolemic activity against high cholesterol diet fed LXRalpha knockout C57BL/6J mouse assessed as improvement in hepatocellular degeneration at 300 microg/kg, ip administered every 2 days for 15 days by Oil red staining based analysis; format: functional, organism-based; details: dose 300.0 µg/kg, time 15.0 day
[13] = system: Mus musculus; assay: Antihypercholesterolemic activity against high cholesterol diet fed LXRalpha knockout C57BL/6J mouse assessed as reduction in serum low density lipoprotein cholesterol level at 300 microg/kg, ip administered every 2 days for 15 days; format: functional, organism-based; details: dose 300.0 µg/kg, time 15.0 day
[14] = system: Mus musculus; assay: Antihypercholesterolemic activity against high cholesterol diet fed C57BL/6J mouse assessed as improvement in hepatocyte liposis at 300 microg/kg, ip administered every 2 days for 15 days by Oil red staining based analysis; format: functional, organism-based; details: dose 300.0 µg/kg, time 15.0 day
[15] = system: Mus musculus; assay: Antihypercholesterolemic activity against high cholesterol diet fed C57BL/6J mouse assessed as reduction in hepatocyte lysis necrosis at 300 microg/kg, ip administered every 2 days for 15 days by Oil red staining based analysis; format: functional, organism-based; details: dose 300.0 µg/kg, time 15.0 day
[16] = system: Mus musculus; assay: Antihypercholesterolemic activity against high cholesterol diet induced C57BL/6J mouse assessed as reduction in serum aspartate aminotransferase level at 300 microg/kg, ip administered every 2 days for 15 days; format: functional, organism-based; details: dose 300.0 µg/kg, time 15.0 day
[17] = molecular target: T1, Oxysterols receptor LXR-alpha (Homo sapiens); assay: Agonist activity at LXRalpha in human HepG2 cells assessed as upregulation of CYP7A1 mRNA expression by measuring fold change at 25 uM incubated for 24 hrs by RT-qPCR analysis; format: cell-based; details: filed as agonist
[18] = system: Mus musculus; assay: Antihypercholesterolemic activity against high cholesterol diet fed LXRalpha knockout C57BL/6J mouse assessed as improvement in hepatocellular degeneration at 300 microg/kg, ip administered every 2 days for 15 days by H&E staining based analysis; format: functional, organism-based; details: dose 300.0 µg/kg, time 15.0 day
[19] = system: Mus musculus; assay: Antihypercholesterolemic activity against high cholesterol diet fed C57BL/6J mouse assessed as reduction in SCD1 protein level at 300 microg/kg, ip administered every 2 days for 15 days by Western blot analysis; format: functional, organism-based; details: dose 300.0 µg/kg, time 15.0 day
[20] = system: Mus musculus; assay: Antihypercholesterolemic activity against high cholesterol diet fed C57BL/6J mouse assessed as improvement in hepatocyte degeneration at 300 microg/kg, ip administered every 2 days for 15 days by Oil red staining based analysis; format: functional, organism-based; details: dose 300.0 µg/kg, time 15.0 day
[21] = system: HepG2; assay: as §1, with “reduction in lipid droplets at 25” for “reduction in total cellular cholesterol level at 25”, “24 hrs by Oil Red O staining based analysis” for “24 hrs”; format: functional

## COc1ccc2c3c([nH]c2c1)[C@H](C=C(C)C)N1C(=O)[C@@H]2CCCN2C(=O)[C@]1(O)[C@H]3O
[1]
  Activity: Active
[2]
  Activity: inactive
[3]
  Activity: Active
[4]
  Activity: Active
[5]
  Activity: Active
[6]
  Activity: Active
[7]
  Activity: Active
[8]
  Activity: Active
[9]
  Activity: Active
[10]
  Activity: Active
[11]
  Activity: Active
[12]
  Activity: Active
[13]
  Activity: inactive
[14]
  Activity: Active
[15]
  Activity: Active
[16]
  Activity: Active
[17]
  fold change (FC): 5.02
[18]
  Activity: Active
[19]
  Activity: Active
[20]
  Activity: Active
[21]
  Activity: Active

From ChEMBL document CHEMBL5376011, “Discovery of Anti-Hypercholesterolemia Agents Targeting LXRα from Marine Microorganism-Derived Natural Products” (J Nat Prod, 2024)
